Molecules are shown by their SMILES.

The test has as its target T1, native MDH (Sus scrofa, UniProt P00346).
T1 construct: soluble pig heart MDH from Roche, product #10127248001; purchased Roche 10127248001; host or cells: pig heart
T1 sequence (P00346 25-338): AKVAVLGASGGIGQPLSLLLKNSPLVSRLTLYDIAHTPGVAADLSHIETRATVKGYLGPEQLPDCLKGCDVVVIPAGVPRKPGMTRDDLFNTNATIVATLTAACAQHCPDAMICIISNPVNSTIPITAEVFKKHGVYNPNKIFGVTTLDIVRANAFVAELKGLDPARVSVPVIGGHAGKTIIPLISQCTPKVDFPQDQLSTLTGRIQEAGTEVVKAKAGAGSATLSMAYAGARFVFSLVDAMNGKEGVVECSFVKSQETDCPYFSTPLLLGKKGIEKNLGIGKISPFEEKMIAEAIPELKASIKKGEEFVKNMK
In words: Counter-screen for inhibition of native MDH enzymatic activity. The test is classed as biochemical, pig. On the procedure: Reagent Preparations & Assay Protocol: This assay was performed as described above for the GroEL/ES-dMDH refolding assay; however, the assay protocol differed in the sequence of compound addition to the assay plates. The refolding reactions were allowed to proceed for 45 min at 37° C. in the absence of test compounds (complete refolding of MDH occurs), then quenched with the EDTA stock. Compounds were then pin-transferred into the plates after the EDTA quenching step; thus, compounds effects are only possible by inhibiting the fully-refolded MDH reporter substrate. […] A340 nm measurements were recorded at 0.5 minutes (start point) and at successive time points until the amount of NADH consumed reached ˜90% (end point, generally between 20-35 minutes). Compounds were tested in 8-point, 3-fold dilution series (62.5 μM to 29 nM during the reporter reaction) in clear, flat-bottom 384-well microtiter plates. DMSO was used as a negative control, and previously discovered native MDH inhibitors were used as positive controls. […] Results presented represent the averages of IC50 values obtained from at least quadriplicate (duplicate of duplicate) replicates.

As to `O=C(Nc1ccccc1)c1ccccc1` [Compound 28, N-Phenylbenzamide], the IC50 by setting is: (Biochemical Assay IC50 Native MDH Reporter) more than 63 µM; (log(IC50) Native MDH Reporter, log of IC50 (μM scale), with standard deviation) more than 63.1 µM.

The values above are taken from US20210395210A1, “INHIBITION OF BACTERIAL CHAPERONIN SYSTEMS” (THE TRUSTEES OF INDIANA UNIVERSITY, priority 2018, published 2021).
